Test results as given in US20230263822A1, “MODULATION OF FACTOR 11 EXPRESSION” (Ionis Pharmaceuticals, Inc., priority 2008, published 2023).
Strand notation (5' to 3'): a small letter for the sugar, then the base; units joined by * are phosphorothioate-linked, units joined directly phosphodiester-linked; [ ] holds rarer units or linkages, { } end groups; capitals alone tell only the bases. e = 2'-O-(2-methoxyethyl) (MOE); [5mC] = 5-methylcytosine; d = 2'-deoxy (DNA)

Assay: Hematology assays in cynomolgus monkeys (Example 46)
Assay type: in vivo
Method: Groups, each consisting of two male and two female monkeys, were injected subcutaneously with 25 mg/kg of ISIS 416850, ISIS 449709, ISIS 445522, ISIS 449710, ISIS 449707, ISIS 449711, ISIS 449708, 416858, and ISIS 445531. Antisense oligonucleotide was administered to the monkeys at 25 mg/kg three times per week for week 1 and 25 mg/kg twice per week for weeks 2 to 8. A control group, consisting of two male and two female monkeys was injected subcutaneously with PBS according to the same dosing regimen. Body weights were taken 14 days and 7 days before the start of treatment and were then measured weekly throughout the treatment period. Blood samples were collected 14 days and 5 days before the start of treatment and subsequently several times during the dosing regimen for PT and aPTT measurements, and measurement of various hematologic factors. On day 55, the monkeys were euthanized by exsanguination while under deep anesthesia, and organs harvested for further analysis.

## ISIS 449707: 3-8-3, 4-8-4, 2-10-2, 3-10-3 or 4-10-4 MOE microwalk gapmer (Table 46) (antisense e[5mC]*eA*e[5mC]*eA*dG*dT*dT*dT*d[5mC]*dT*dG*dG*e[5mC]*eA*eG*eG)
Day 17
  HCT: 42%
  MCH: 22.1 pg
  MCHC: 30.0 g/dL
  MCV: 74 fL
  RBC count: 5.7e+06 µL⁻¹
  WBC count: 12000 µL⁻¹
  hemoglobin content: 12.7 g/dL
  monocytes: 3.2%
  neutrophils: 80%
  platelet count: 408 ×100/μL
Day 31
  HCT: 43%
  MCH: 22.1 pg
  MCHC: 29.8 g/dL
  MCV: 74 fL
  RBC count: 5.7e+06 µL⁻¹
  WBC count: 11000 µL⁻¹
  hemoglobin content: 12.7 g/dL
  monocytes: 4.2%
  neutrophils: 89%
  platelet count: 408 ×100/μL
Day 45
  HCT: 43%
  MCH: 22.6 pg
  MCHC: 29.8 g/dL
  MCV: 73 fL
  RBC count: 5.9e+06 µL⁻¹
  WBC count: 12000 µL⁻¹
  hemoglobin content: 12.9 g/dL
  monocytes: 4.0%
  neutrophils: 89%
  platelet count: 424 ×100/μL
Day 55
  HCT: 42%
  MCH: 21.9 pg
  MCHC: 30.0 g/dL
  MCV: 73 fL
  RBC count: 5.8e+06 µL⁻¹
  WBC count: 8000 µL⁻¹
  hemoglobin content: 12.6 g/dL
  monocytes: 4.8%
  neutrophils: 98%
  platelet count: 399 ×100/μL
Day-5
  HCT: 43%
  MCH: 22.2 pg
  MCHC: 29.8 g/dL
  MCV: 75 fL
  RBC count: 5.8e+06 µL⁻¹
  WBC count: 11000 µL⁻¹
  hemoglobin content: 12.8 g/dL
  monocytes: 2.3%
  neutrophils: 106%
  platelet count: 464 ×100/μL
Day-14
  HCT: 40%
  MCH: 22.2 pg
  MCHC: 31.4 g/dL
  MCV: 71 fL
  RBC count: 5.7e+06 µL⁻¹
  WBC count: 13000 µL⁻¹
  hemoglobin content: 12.7 g/dL
  monocytes: 1.3%
  neutrophils: 85%
  platelet count: 383 ×100/μL

## ISIS 449708: 3-8-3, 4-8-4, 2-10-2, 3-10-3 or 4-10-4 MOE microwalk gapmer (Table 46) (antisense eA*e[5mC]*eA*dG*dT*dT*dT*d[5mC]*dT*dG*dG*e[5mC]*eA*eG)
Day 17
  HCT: 44%
  MCH: 22.9 pg
  MCHC: 30.7 g/dL
  MCV: 75 fL
  RBC count: 5.9e+06 µL⁻¹
  WBC count: 11000 µL⁻¹
  hemoglobin content: 13.5 g/dL
  monocytes: 5.4%
  neutrophils: 61%
  platelet count: 444 ×100/μL
Day 31
  HCT: 43%
  MCH: 22.7 pg
  MCHC: 29.9 g/dL
  MCV: 75 fL
  RBC count: 5.8e+06 µL⁻¹
  WBC count: 11000 µL⁻¹
  hemoglobin content: 13.0 g/dL
  monocytes: 5.8%
  neutrophils: 57%
  platelet count: 378 ×100/μL
Day 45
  HCT: 44%
  MCH: 22.2 pg
  MCHC: 30.6 g/dL
  MCV: 74 fL
  RBC count: 6e+06 µL⁻¹
  WBC count: 10000 µL⁻¹
  hemoglobin content: 13.3 g/dL
  monocytes: 7.0%
  neutrophils: 61%
  platelet count: 381 ×100/μL
Day 55
  HCT: 42%
  MCH: 22.5 pg
  MCHC: 31.8 g/dL
  MCV: 74 fL
  RBC count: 5.8e+06 µL⁻¹
  WBC count: 10000 µL⁻¹
  hemoglobin content: 13.0 g/dL
  monocytes: 6.2%
  neutrophils: 75%
  platelet count: 348 ×100/μL
Day-5
  HCT: 44%
  MCH: 22.7 pg
  MCHC: 30.2 g/dL
  MCV: 75 fL
  RBC count: 5.9e+06 µL⁻¹
  WBC count: 10000 µL⁻¹
  hemoglobin content: 13.2 g/dL
  monocytes: 2.6%
  neutrophils: 84%
  platelet count: 517 ×100/μL
Day-14
  HCT: 41%
  MCH: 22.9 pg
  MCHC: 31.4 g/dL
  MCV: 73 fL
  RBC count: 5.7e+06 µL⁻¹
  WBC count: 14000 µL⁻¹
  hemoglobin content: 13.0 g/dL
  monocytes: 1.7%
  neutrophils: 73%
  platelet count: 387 ×100/μL

## ISIS 449709: 3-8-3, 4-8-4, 2-10-2, 3-10-3 or 4-10-4 MOE microwalk gapmer (Table 46) (antisense eG*e[5mC]*eA*e[5mC]*dA*dG*dT*dT*dT*d[5mC]*dT*dG*dG*d[5mC]*eA*eG*eG*e[5mC])
Day 17
  HCT: 43%
  MCH: 22.5 pg
  MCHC: 30.7 g/dL
  MCV: 73 fL
  RBC count: 5.9e+06 µL⁻¹
  WBC count: 11000 µL⁻¹
  hemoglobin content: 13.2 g/dL
  monocytes: 3.0%
  neutrophils: 89%
  platelet count: 449 ×100/μL
Day 31
  HCT: 42%
  MCH: 22.2 pg
  MCHC: 30.7 g/dL
  MCV: 73 fL
  RBC count: 5.9e+06 µL⁻¹
  WBC count: 11000 µL⁻¹
  hemoglobin content: 13.1 g/dL
  monocytes: 2.8%
  neutrophils: 81%
  platelet count: 471 ×100/μL
Day 45
  HCT: 41%
  MCH: 21.0 pg
  MCHC: 31.1 g/dL
  MCV: 71 fL
  RBC count: 5.7e+06 µL⁻¹
  WBC count: 11000 µL⁻¹
  hemoglobin content: 12.6 g/dL
  monocytes: 3.6%
  neutrophils: 77%
  platelet count: 418 ×100/μL
Day 55
  HCT: 40%
  MCH: 22.0 pg
  MCHC: 31.2 g/dL
  MCV: 71 fL
  RBC count: 5.7e+06 µL⁻¹
  WBC count: 10000 µL⁻¹
  hemoglobin content: 12.5 g/dL
  monocytes: 3.4%
  neutrophils: 115%
  platelet count: 441 ×100/μL
Day-5
  HCT: 42%
  MCH: 22.3 pg
  MCHC: 30.3 g/dL
  MCV: 74 fL
  RBC count: 5.8e+06 µL⁻¹
  WBC count: 10000 µL⁻¹
  hemoglobin content: 12.8 g/dL
  monocytes: 2.0%
  neutrophils: 101%
  platelet count: 481 ×100/μL
Day-14
  HCT: 41%
  MCH: 22.4 pg
  MCHC: 31.4 g/dL
  MCV: 72 fL
  RBC count: 5.8e+06 µL⁻¹
  WBC count: 11000 µL⁻¹
  hemoglobin content: 12.8 g/dL
  monocytes: 4.0%
  neutrophils: 73%
  platelet count: 456 ×100/μL

## ISIS 449710: 3-8-3, 4-8-4, 2-10-2, 3-10-3 or 4-10-4 MOE microwalk gapmer (Table 46) (antisense e[5mC]*eA*e[5mC]*dA*dG*dT*dT*dT*d[5mC]*dT*dG*dG*d[5mC]*eA*eG*eG)
Day 17
  HCT: 43%
  MCH: 23.1 pg
  MCHC: 30.7 g/dL
  MCV: 75 fL
  RBC count: 5.8e+06 µL⁻¹
  WBC count: 12000 µL⁻¹
  hemoglobin content: 13.4 g/dL
  monocytes: 2.5%
  neutrophils: 80%
  platelet count: 382 ×100/μL
Day 31
  HCT: 44%
  MCH: 22.6 pg
  MCHC: 30.1 g/dL
  MCV: 75 fL
  RBC count: 5.8e+06 µL⁻¹
  WBC count: 12000 µL⁻¹
  hemoglobin content: 13.1 g/dL
  monocytes: 2.4%
  neutrophils: 94%
  platelet count: 422 ×100/μL
Day 45
  HCT: 43%
  MCH: 21.8 pg
  MCHC: 30.4 g/dL
  MCV: 75 fL
  RBC count: 5.7e+06 µL⁻¹
  WBC count: 11000 µL⁻¹
  hemoglobin content: 13.0 g/dL
  monocytes: 3.4%
  neutrophils: 97%
  platelet count: 313 ×100/μL
Day 55
  HCT: 41%
  MCH: 22.7 pg
  MCHC: 31.1 g/dL
  MCV: 73 fL
  RBC count: 5.6e+06 µL⁻¹
  WBC count: 15000 µL⁻¹
  hemoglobin content: 12.7 g/dL
  monocytes: 1.6%
  neutrophils: 132%
  platelet count: 360 ×100/μL
Day-5
  HCT: 44%
  MCH: 22.8 pg
  MCHC: 29.7 g/dL
  MCV: 77 fL
  RBC count: 5.8e+06 µL⁻¹
  WBC count: 11000 µL⁻¹
  hemoglobin content: 13.2 g/dL
  monocytes: 2.0%
  neutrophils: 86%
  platelet count: 463 ×100/μL
Day-14
  HCT: 41%
  MCH: 23.0 pg
  MCHC: 31.2 g/dL
  MCV: 75 fL
  RBC count: 5.6e+06 µL⁻¹
  WBC count: 11000 µL⁻¹
  hemoglobin content: 13.0 g/dL
  monocytes: 1.3%
  neutrophils: 93%
  platelet count: 411 ×100/μL
